Assay results from patent US8329862B1, “Cell-killing peptide derived from the C-terminus of NOXA protein” (Chosun University, priority 2004, dated 2012).
No end group written: not given here.

Experiments:
Format in all cases: cell-based
[1] = test system: HeLa cell, a cervical cancer cell line; assay: Cell-killing effect on HeLa cells, crystal violet staining of attached living cells; settings: for cell-killing activity: procedure of Example 2, crystal violet; for cell-killing activity compared with CKP peptide: procedure of Example 2, FIG. 6
Protocol: In order to examine the cell-killing effect of CKP peptide synthesized in Example 1, HeLa cell, a cervical cancer cell line was adopted and cultivated. The culture medium was replaced with experimental media containing CKP peptide solution in 0, 1, 5, 10, 15, 20, 30, 40 μM of concentration serially and cultivated for more 24 hours. In order to observe living cells attached on the surface, the resulting cells were stained for 10 minutes by using 100 μl of 0.5% crystal violet and then, washed out by using distilled water and running water to be de-stained, while discarding cells floating on the culture medium. Then, cells were observed by photography after placing culture vessel under a fluorescent lamp box as depicted in FIG. 3. At this moment, living cells attached on the surface appeared blue color since they were stained by crystal violet.

[2] = test system: HeLa cell, a cervical cancer cell line; assay: as above; settings: pan-caspase inhibitor z-VAD-fmk in culture media, FIG. 11
HeLa cell lines = assay: Time-lapse video capture microscopy of HeLa cell death; settings: for morphology of dead HeLa cells: CKP at 23 minutes and 20 seconds, TRAIL at 5 hours and 30 minutes, FIG. 8
Protocol: In order to analyze the action mode of CKP peptide of the present invention, several substances that are known to kill cells were adopted to compare the cell-killing effects. Above all, CKP peptide (10 μM), TRAIL (100 ng/ml) and Cisplatin (100 μg/ml) were treated to HeLa cell lines and observed under time-lapse video capture microscopy (Leica, Model: DMIRBE, Germany) in some time-interval (for CKP peptide, 20 seconds; TRAIL, 40 seconds; Cisplatin, 3 minutes) for 1 hour and 40 minutes, 3 hours and 30 minutes, 8 hours and 48 hours respectively. Then, the results were photographed to 40× by using FW4000 software. FIG. 7 depicts HeLa cells serially at each time interval. As a result, it is observed that the cell death caused by TRAIL started at about 1 hour and 30 minutes after treatment and reached the maximum level at about 8 hours. To the contrary, HeLa cell started to die at about 10 minutes after treating CKP peptide and most of HeLa cells have died even at 23 minutes and 20 seconds.

[3] = test system: HeLa cell, a cervical cancer cell line; assay: Relative survival ratio of HeLa cells, counted from time-lapse microscopy; settings: 1 hour
Protocol: In order to measure the strength of CKP peptide, several substances that are known to kill cells were adopted to compare the cell-killing effects. HeLa cell, a cervical cancer cell line was cultivated and treated with CKP peptide, TRAIL and Cisplatin to 30 μM, 100 ng/ml and 100 μg/ml respectively for 1 hour. After that, the resulting cells were observed under time-lapse video capture microscopy (Leica, Model: DMI RBE, Germany) in 20 seconds of time-interval for 1 hour by the procedure described in Example 5, photographed to 40×, counted for the numbers of living cells and dead cells and then, estimated the relative survival ratio in a graph. […] As a consequence, it is clarified that CKP peptide of the present invention had the strongest cell-killing effect about 9-fold more than TRAIL or Cisplatin.

Bid(mt)BH3CKP: fusion protein combining CKP peptide with mutant BidBH3 deleting the active site of BH3 domain, SEQ ID NO: 13 (RRRRRRRRGNIARHLAQVADSMDRRQKLLNLISKLF; Fusion protein)
cell-killing activity [1]: had the cell-killing activity

BidBH3CKP: fusion protein that combines CKP peptide with BidBH3 peptide, SEQ ID NO: 12 (RRRRRRRRGNIARHLAQVGDSMDRRQKLLNLISKLF; Fusion protein)
cell-killing activity relative to BidBH3 peptide ([1]; procedure of Example 2): 2 fold | difference of cell-killing activity with or without z-VAD-fmk [2]: not significant difference

CKP 2: SEQ ID NO: 5 (RRRRRRRRGRQKALNLISKLF), substituted in one residue (fusion protein)
cell-killing activity compared with CKP peptide [1]: decreased the cell-killing activity slightly

CKP 3: SEQ ID NO: 6 (RRRRRRRRGRQKLAALISKLF), substituted in two residues (fusion protein)
cell-killing activity compared with CKP peptide [1]: decreased the cell-killing activity slightly

CKP 4: SEQ ID NO: 7 (RRRRRRRRGRQKLLNLIAALF), substituted in two residues (fusion protein)
cell-killing activity compared with CKP peptide [1]: outstanding rather than CKP peptide

CKP 5: SEQ ID NO: 8 (RRRRRRRRGRQKALNLIAALF), substituted in three residues (fusion protein)
cell-killing activity compared with CKP peptide [1]: decreased the cell-killing activity slightly

CKP 6: SEQ ID NO: 9 (RRRRRRRRGRQKAANLISKLF), 2nd and 3rd leucines substituted to alanine (Fusion protein)
cell-killing activity compared with CKP peptide [1]: decreased the cell-killing activity remarkably

CKP 7: SEQ ID NO: 10 (RRRRRRRRGRQKLLNAISKLF), 5th leucine substituted to alanine (Fusion protein)
cell-killing activity compared with CKP peptide [1]: decreased the cell-killing activity remarkably

CKP 8: SEQ ID NO: 11 (RRRRRRRRGRQKLLNLISKAF), 9th leucine substituted to alanine (Fusion protein)
cell-killing activity compared with CKP peptide [1]: decreased the cell-killing activity remarkably

PTD domain without CKP domain: only PTD domain without CKP domain, synthesized as in Example 1 (RRRRRRRRG; protein transduction domain) [reference compound]
cell-killing activity [1]: not detected at all

RRRRRRRRGRQKLLNLISKLF [CKP peptide]
concentration from which cell-killing activity is seen ([1]; 0-40 μM, 24 hours, crystal violet, FIG. 3): ≥ 10 µM | cell-killing activity [1]: became strong remarkably | morphology of dead HeLa cells (HeLa cell lines): several cell membranes like balloon | time at which HeLa cells started to die after treatment (HeLa cell lines; CKP peptide 10 μM): about 10 minutes | cell-killing effect relative to TRAIL or Cisplatin [3]: about 9 fold

B1: TRAIL (protein, UniProt P50591 1-281, looked up)
Tumor necrosis factor ligand …: MAMMEVQGGPSLGQTCVLIVIFTVLLQSLCVAVTYVYFTNELKQMQDKYSKSGIACFLKEDDSYWDPNDEESMNSPCWQVKWQLRQLVRKMILRTSEETISTVQEKQQNISPLVRERGPQRVAAHITGTRGRSNTLSSPNSKNEKALGRKINSWESSRSGHSFLSNLHLRNGELVIHEKGFYYIYSQTYFRFQEEIKENTKNDKQMVQYIYKYTSYPDPILLMKSARNSCWSKDAEYGLYSIYQGGIFELKENDRIFVSVTNEHLIDMDHEASFFGAFLVG
notes: substance known to kill cells, used as comparator
morphology of dead HeLa cells (HeLa cell lines): not to have cell membrane like balloon | time at which cell death reached the maximum level (HeLa cell lines; TRAIL 100 ng/ml): about 8 hours
